# Laboratory results from the NIST ThermoML archive (doi:10.1016/j.jct.2014.07.023).
# “And” between values parts separate entries of the source, which are not always exact repeats. Equal entries are not always repeated. ± gives the expanded uncertainty stated by the source.
# What was measured:
# [1] = molar heat capacity at constant pressure; conditions: 101.33 kPa, Liquid, Small sample (50 mg) DSC
# [2] = molar heat capacity at constant pressure; xn = mol fraction of the nth substance listed; conditions: 100 kPa, Liquid, Small sample (50 mg) DSC, x2 = 0
Structure (SMILES),molar heat capacity at constant pressure ([1]; 293.15 K),molar heat capacity at constant pressure ([1]; 298.15 K),molar heat capacity at constant pressure ([1]; 303.15 K),molar heat capacity at constant pressure ([1]; 308.15 K),molar heat capacity at constant pressure ([1]; 313.15 K),molar heat capacity at constant pressure ([1]; 318.15 K),molar heat capacity at constant pressure ([1]; 323.15 K),molar heat capacity at constant pressure ([2]; 293.15 K),molar heat capacity at constant pressure ([2]; 298.15 K),molar heat capacity at constant pressure ([2]; 303.15 K),molar heat capacity at constant pressure ([2]; 308.15 K),molar heat capacity at constant pressure ([2]; 313.15 K),molar heat capacity at constant pressure ([2]; 318.15 K),molar heat capacity at constant pressure ([2]; 323.15 K)
"CCC(O)CO (stereo not drawn) [1,2-butanediol]",228.1 ± 9.6 J/K/mol,230.82 ± 9.8 J/K/mol and 230.8 ± 9.8 J/K/mol,233.5 ± 9.9 J/K/mol,236.21 ± 10 J/K/mol,238.91 ± 10 J/K/mol,241.52 ± 10 J/K/mol,244.23 ± 10 J/K/mol,–,–,–,–,–,–,–
"CC(O)CCO (stereo not drawn) [1,3-butanediol]",215.84 ± 9.2 J/K/mol,218.89 ± 9.3 J/K/mol and 218.9 ± 9.3 J/K/mol,222.06 ± 9.5 J/K/mol,225.21 ± 9.6 J/K/mol,228.37 ± 9.7 J/K/mol,231.61 ± 9.8 J/K/mol,234.86 ± 10 J/K/mol,–,–,–,–,–,–,–
"OCCCCO [1,4-butanediol]",201.15 ± 8.6 J/K/mol,203.79 ± 8.7 J/K/mol and 203.76 ± 8.7 J/K/mol,206.56 ± 8.7 J/K/mol,209.44 ± 8.9 J/K/mol,212.33 ± 9 J/K/mol,215.39 ± 9.1 J/K/mol,218.54 ± 9.3 J/K/mol,–,–,–,–,–,–,–
"CC(O)C(C)O (stereo not drawn) [2,3-butanediol]",233.95 ± 9.9 J/K/mol,236.66 ± 10 J/K/mol and 236.63 ± 10 J/K/mol,239.36 ± 10 J/K/mol,242.07 ± 10 J/K/mol,244.77 ± 10 J/K/mol,247.47 ± 11 J/K/mol,250.18 ± 11 J/K/mol,–,–,–,–,–,–,–
CO [methanol],80.46 ± 3.4 J/K/mol,81.38 ± 3.5 J/K/mol and 81.39 ± 3.5 J/K/mol,82.38 ± 3.5 J/K/mol,83.44 ± 3.5 J/K/mol,84.56 ± 3.6 J/K/mol,85.78 ± 3.7 J/K/mol,87.03 ± 3.7 J/K/mol,–,–,–,–,–,–,–
CO [methanol] + CC(O)C(C)O,–,–,–,–,–,–,–,80.46 ± 3.4 J/K/mol,81.39 ± 3.5 J/K/mol,82.38 ± 3.5 J/K/mol,83.44 ± 3.5 J/K/mol,84.56 ± 3.6 J/K/mol,85.78 ± 3.7 J/K/mol,87.03 ± 3.7 J/K/mol
CO [methanol] + CC(O)CCO,–,–,–,–,–,–,–,80.46 ± 3.4 J/K/mol,81.39 ± 3.5 J/K/mol,82.38 ± 3.5 J/K/mol,83.44 ± 3.5 J/K/mol,84.56 ± 3.6 J/K/mol,85.78 ± 3.7 J/K/mol,87.03 ± 3.7 J/K/mol
CO [methanol] + CCC(O)CO,–,–,–,–,–,–,–,80.46 ± 3.4 J/K/mol,81.39 ± 3.5 J/K/mol,82.38 ± 3.5 J/K/mol,83.44 ± 3.5 J/K/mol,84.56 ± 3.6 J/K/mol,85.78 ± 3.7 J/K/mol,87.03 ± 3.7 J/K/mol
CO [methanol] + OCCCCO,–,–,–,–,–,–,–,80.46 ± 3.4 J/K/mol,81.39 ± 3.5 J/K/mol,82.38 ± 3.5 J/K/mol,83.44 ± 3.5 J/K/mol,84.56 ± 3.6 J/K/mol,85.78 ± 3.7 J/K/mol,87.03 ± 3.7 J/K/mol
